Laboratory results reported in US20240158370A1, “CK1 alpha AND DUAL CK1 alpha / GSPT1 DEGRADING COMPOUNDS” (Innovo Therapeutics, Inc., priority 2022, published 2024).

Legend:
[1] = biological target: T1, CK1α (Homo sapiens, UniProt P48729+Q96SW2); assay: HiBiT degradation assay, CK1α, Procedure A; type: cell-based
T1 construct: CSNK1A1-HiBit KI HEK293(LgBit) Cells; host or cells: HEK293(LgBit) knock-in cells
In short: (§1)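 Cells in DMEM + 10% FBS were treated with compound in a ten-point dose response from 10 μM to 0.005 μM (0.1% DMSO) for six hours at 37° C. Lysis with Nano-Glo HiBiT detection reagent followed, with luminescence read. DC50 and Ymin came from a 4-parameter fit.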

[2] = biological target: GSPT1 (Homo sapiens, UniProt P15170+Q96SW2); assay: HiBiT degradation assay, GSPT1, Procedure A; type: cell-based; parameters: HiBit-GSPT1 KI HEK293(LgBit) Cells; host or cells: HEK293(LgBit) knock-in cells
In short: as §1

T1 sequence (P48729 whole entry): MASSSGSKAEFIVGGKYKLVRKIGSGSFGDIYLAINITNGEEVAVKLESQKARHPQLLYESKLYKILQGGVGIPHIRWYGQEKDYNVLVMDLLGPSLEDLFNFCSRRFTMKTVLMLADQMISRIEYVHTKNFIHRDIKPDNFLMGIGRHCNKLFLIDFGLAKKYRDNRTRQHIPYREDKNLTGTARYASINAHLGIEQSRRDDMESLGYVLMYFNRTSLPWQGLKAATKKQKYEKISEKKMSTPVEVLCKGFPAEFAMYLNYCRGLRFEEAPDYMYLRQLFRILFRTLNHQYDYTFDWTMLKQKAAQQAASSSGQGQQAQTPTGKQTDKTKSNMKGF
T1 sequence (Q96SW2 whole entry): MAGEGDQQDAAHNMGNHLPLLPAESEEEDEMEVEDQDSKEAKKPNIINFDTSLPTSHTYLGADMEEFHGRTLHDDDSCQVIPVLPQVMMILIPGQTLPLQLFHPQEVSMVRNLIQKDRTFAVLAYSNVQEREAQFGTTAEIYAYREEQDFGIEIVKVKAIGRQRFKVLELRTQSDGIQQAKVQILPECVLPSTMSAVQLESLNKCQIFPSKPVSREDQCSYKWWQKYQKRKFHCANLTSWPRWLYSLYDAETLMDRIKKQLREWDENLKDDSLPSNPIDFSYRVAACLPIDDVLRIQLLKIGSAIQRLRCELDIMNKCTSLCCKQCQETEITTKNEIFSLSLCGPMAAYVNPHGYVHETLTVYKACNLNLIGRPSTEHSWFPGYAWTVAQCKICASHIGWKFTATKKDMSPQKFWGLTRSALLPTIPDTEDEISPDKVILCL
T1 sequence (Q16531 whole entry partner): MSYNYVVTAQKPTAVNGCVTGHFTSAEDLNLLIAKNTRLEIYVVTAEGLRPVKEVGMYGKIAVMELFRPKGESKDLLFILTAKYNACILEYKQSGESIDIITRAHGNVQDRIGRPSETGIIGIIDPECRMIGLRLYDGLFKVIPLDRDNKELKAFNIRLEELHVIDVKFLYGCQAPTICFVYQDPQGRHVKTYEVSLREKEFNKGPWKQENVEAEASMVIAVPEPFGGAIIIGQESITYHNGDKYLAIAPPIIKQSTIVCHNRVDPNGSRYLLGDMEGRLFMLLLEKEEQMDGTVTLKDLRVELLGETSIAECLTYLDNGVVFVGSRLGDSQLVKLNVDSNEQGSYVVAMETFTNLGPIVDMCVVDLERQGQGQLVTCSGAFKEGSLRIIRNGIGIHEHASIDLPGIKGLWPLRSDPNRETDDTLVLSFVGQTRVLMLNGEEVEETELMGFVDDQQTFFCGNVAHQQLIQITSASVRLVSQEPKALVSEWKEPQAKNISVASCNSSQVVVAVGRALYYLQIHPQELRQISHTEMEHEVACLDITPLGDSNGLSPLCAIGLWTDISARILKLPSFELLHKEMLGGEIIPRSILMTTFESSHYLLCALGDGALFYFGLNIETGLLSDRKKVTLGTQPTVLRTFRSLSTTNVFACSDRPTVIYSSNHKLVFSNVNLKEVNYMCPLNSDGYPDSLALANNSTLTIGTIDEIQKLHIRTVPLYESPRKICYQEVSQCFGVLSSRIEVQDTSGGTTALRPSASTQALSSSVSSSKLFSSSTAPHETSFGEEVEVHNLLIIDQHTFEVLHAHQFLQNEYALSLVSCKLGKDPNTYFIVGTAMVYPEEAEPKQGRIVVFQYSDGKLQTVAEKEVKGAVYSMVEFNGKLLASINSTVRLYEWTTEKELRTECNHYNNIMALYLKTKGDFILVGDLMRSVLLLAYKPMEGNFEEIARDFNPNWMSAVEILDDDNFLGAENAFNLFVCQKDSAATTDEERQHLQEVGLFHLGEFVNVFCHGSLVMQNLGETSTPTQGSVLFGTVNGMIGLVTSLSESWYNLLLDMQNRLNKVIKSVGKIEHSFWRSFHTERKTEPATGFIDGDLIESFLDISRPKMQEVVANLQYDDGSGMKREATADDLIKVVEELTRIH
Sequence of GSPT1 (P15170 whole entry): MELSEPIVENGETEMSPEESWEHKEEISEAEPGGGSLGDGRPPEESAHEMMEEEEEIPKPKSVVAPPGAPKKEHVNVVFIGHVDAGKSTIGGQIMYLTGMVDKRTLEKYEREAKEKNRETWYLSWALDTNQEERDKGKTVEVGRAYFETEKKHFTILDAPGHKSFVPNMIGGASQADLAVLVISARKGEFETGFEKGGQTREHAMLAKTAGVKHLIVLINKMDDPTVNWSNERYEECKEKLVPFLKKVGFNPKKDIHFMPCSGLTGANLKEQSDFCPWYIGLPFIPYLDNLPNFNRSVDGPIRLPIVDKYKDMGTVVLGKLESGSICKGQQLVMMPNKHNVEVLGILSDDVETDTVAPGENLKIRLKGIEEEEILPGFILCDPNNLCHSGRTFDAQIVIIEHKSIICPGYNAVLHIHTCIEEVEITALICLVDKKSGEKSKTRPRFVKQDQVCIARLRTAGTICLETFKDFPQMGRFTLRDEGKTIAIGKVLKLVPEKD
Sequence of GSPT1 (Q96SW2 whole entry): as the sequence (Q96SW2 whole entry) above
Sequence of GSPT1 (Q16531 whole entry partner): as the sequence (Q16531 whole entry partner) above

| Compound | CK1α Ymin ([1]; six hours incubation) | DC50 ([1]; six hours incubation) | DC50 ([2]; six hours incubation) | GSPT1 Ymin ([2]; six hours incubation) | CK1α Ymin ([1]; six hours) | DC50 ([1]; six hours) | DC50 ([2]; six hours) | GSPT1 Ymin ([2]; six hours) |
| --- | --- | --- | --- | --- | --- | --- | --- | --- |
| CNC(=O)c1cccc(-c2c(-c3ccc4c(c3)CN(C3CCC(=O)NC3=O)C4=O)ncn2C)c1 (stereo not shown) [Example 268] | D (D = >10- 25% remaining) | ≥ 25 nM | ≥ 25 nM | F (F = >75-100% remaining) | – | – | – | – |
| CC(C)n1nc(-c2ccccc2)nc1-c1ccc2c(c1)CN(C1CCC(=O)NC1=O)C2=O (stereo not shown) [Example 610, 3-(5-(1-isopropyl-3-phenyl-1H-1,2,4-triazol-5-yl)-1-oxoisoindolin-2-yl)piperidine-2,6-dione] | – | – | – | – | D (D = >10- 25% remaining) | < 25 nM | ≥ 25 nM | E (E = >25-75% remaining) |
| Cn1cnc(-c2ccc3c(c2)CN(C2CCC(=O)NC2=O)C3=O)c1-c1ccc(F)c(F)c1 (stereo not shown) [Example 177] | D (D = >10- 25% remaining) | < 25 nM | < 25 nM | E (E = >25-75% remaining) | – | – | – | – |
| CC(C)Cc1ccc(-c2c(-c3ccc4c(c3)CN(C3CCC(=O)NC3=O)C4=O)ncn2C)cc1 (stereo not shown) [Example 265] | D (D = >10- 25% remaining) | < 25 nM | ≥ 25 nM | F (F = >75-100% remaining) | – | – | – | – |
| COc1ccc(C)cc1-c1c(-c2ccc3c(c2)CN(C2CCC(=O)NC2=O)C3=O)cnn1C (stereo not shown) [Example 137] | E (E = >25-75% remaining) | < 25 nM | < 25 nM | F (F = >75-100% remaining) | – | – | – | – |
| CN(C)C(=O)c1ccc(-c2c(-c3ccc4c(c3)CN(C3CCC(=O)NC3=O)C4=O)ncn2C)cc1 (stereo not shown) [Example 289] | C (C = 0-10% remaining) | ≥ 25 nM | ≥ 25 nM | F (F = >75-100% remaining) | – | – | – | – |
| Cn1cnc(-c2ccc3c(c2)CN(C2CCC(=O)NC2=O)C3=O)c1-c1ccc(C(F)F)cc1 (stereo not shown) [Example 203] | D (D = >10- 25% remaining) | < 25 nM | ≥ 25 nM | E (E = >25-75% remaining) | – | – | – | – |
| COc1ccc(-c2c(-c3ccc4c(c3)CN(C3CCC(=O)NC3=O)C4=O)ncn2C)cn1 (stereo not shown) [Example 329] | C (C = 0-10% remaining) | < 25 nM | ≥ 25 nM | E (E = >25-75% remaining) | – | – | – | – |
| Cn1cnc(-c2ccc3c(c2)CN(C2CCC(=O)NC2=O)C3=O)c1-c1cnn(C(C)(C)C)c1 (stereo not shown) [Example 492] | – | – | – | – | F (F = >75-100% remaining) | ≥ 25 nM | ≥ 25 nM | F (F = >75-100% remaining) |
| Cc1ccc(Cl)cc1-c1c(-c2ccc3c(c2)CN(C2CCC(=O)NC2=O)C3=O)ncn1C (stereo not shown) [Example 196] | E (E = >25-75% remaining) | < 25 nM | < 25 nM | F (F = >75-100% remaining) | – | – | – | – |
| COc1ccc(-c2c(-c3ccc4c(c3)CN(C3CCC(=O)NC3=O)C4=O)cnn2C)cc1 (stereo not shown) [Example 70] | C (C = 0-10% remaining) | < 25 nM | ≥ 25 nM | F (F = >75-100% remaining) | – | – | – | – |
| Cn1cnc(-c2ccc3c(c2)CN(C2CCC(=O)NC2=O)C3=O)c1-c1cccc(F)c1F (stereo not shown) [Example 242] | D (D = >10- 25% remaining) | < 25 nM | < 25 nM | F (F = >75-100% remaining) | – | – | – | – |
| CCn1cnc(-c2ccc3c(c2)CN(C2CCC(=O)NC2=O)C3=O)c1-c1ccccc1 (stereo not shown) [Example 26, 3-(5-(1-Ethyl-5-phenyl-1H-imidazol-4-yl)-1-oxoisoindolin-2-yl)piperidine-2,6-dione] | C (C = 0-10% remaining) | < 25 nM | < 25 nM | E (E = >25-75% remaining) | – | – | – | – |
| Cn1ncc(-c2ccc3c(c2)CN(C2CCC(=O)NC2=O)C3=O)c1-c1ccc(Cl)cc1F (stereo not shown) [Example 79] | E (E = >25-75% remaining) | < 25 nM | ≥ 25 nM | F (F = >75-100% remaining) | – | – | – | – |
| COc1ncccc1-c1c(-c2ccc3c(c2)CN(C2CCC(=O)NC2=O)C3=O)ncn1C (stereo not shown) [Example 327] | D (D = >10- 25% remaining) | < 25 nM | < 25 nM | F (F = >75-100% remaining) | – | – | – | – |
| COc1cccc(COc2cccc(-c3c(-c4ccc5c(c4)CN(C4CCC(=O)NC4=O)C5=O)ncn3C)c2)c1 (stereo not shown) [Example 303] | E (E = >25-75% remaining) | < 25 nM | ≥ 25 nM | F (F = >75-100% remaining) | – | – | – | – |
| Cn1cnc(-c2ccc3c(c2)CN(C2CCC(=O)NC2=O)C3=O)c1-c1cccc(C(C)(C)C)c1 (stereo not shown) [Example 266] | E (E = >25-75% remaining) | ≥ 25 nM | < 25 nM | F (F = >75-100% remaining) | – | – | – | – |
| Cn1cnc(-c2ccc3c(c2)CN(C2CCC(=O)NC2=O)C3=O)c1-c1ccc2scnc2c1 (stereo not shown) [Example 402] | – | – | – | – | E (E = >25-75% remaining) | < 25 nM | ≥ 25 nM | F (F = >75-100% remaining) |
| Cn1cnc(-c2ccc3c(c2)CN(C2CCC(=O)NC2=O)C3=O)c1C1CCOC1 (stereo not shown) [Example 597] | – | – | – | – | E (E = >25-75% remaining) | ≥ 25 nM | ≥ 25 nM | F (F = >75-100% remaining) |
| Cn1cnc(-c2ccc3c(c2)CN(C2CCC(=O)NC2=O)C3=O)c1-c1ccc(S(=O)(=O)NC2CCCCC2)cc1 (stereo not shown) [Example 448] | – | – | – | – | D (D = >10- 25% remaining) | ≥ 25 nM | ≥ 25 nM | F (F = >75-100% remaining) |

Results, then the compound that gave them:

| CK1α Ymin ([1]; six hours incubation) | DC50 ([1]; six hours incubation) | DC50 ([2]; six hours incubation) | GSPT1 Ymin ([2]; six hours incubation) | CK1α Ymin ([1]; six hours) | DC50 ([1]; six hours) | DC50 ([2]; six hours) | GSPT1 Ymin ([2]; six hours) | Compound |
| --- | --- | --- | --- | --- | --- | --- | --- | --- |
| – | – | – | – | E (E = >25-75% remaining) | < 25 nM | ≥ 25 nM | F (F = >75-100% remaining) | COc1ccc(-c2c(-c3ccc4c(c3)CN(C3CCC(=O)NC3=O)C4=O)cnn2C)cn1 (stereo not shown) [Example 378] |
| D (D = >10- 25% remaining) | ≥ 25 nM | ≥ 25 nM | F (F = >75-100% remaining) | – | – | – | – | CN(C)C(=O)c1cccc(-c2c(-c3ccc4c(c3)CN(C3CCC(=O)NC3=O)C4=O)ncn2C)c1 (stereo not shown) [Example 290] |
| C (C = 0-10% remaining) | < 25 nM | < 25 nM | E (E = >25-75% remaining) | – | – | – | – | CC(C)Cn1cnc(-c2ccc3c(c2)CN(C2CCC(=O)NC2=O)C3=O)c1-c1ccccc1 (stereo not shown) [Example 22, 3-(5-(1-Isobutyl-5-phenyl-1H-imidazol-4-yl)-1-oxoisoindolin-2-yl)piperidine-2,6-dione] |
| – | – | – | – | C (C = 0-10% remaining) | < 25 nM | ≥ 25 nM | F (F = >75-100% remaining) | [2H]C([2H])([2H])n1ncc(-c2ccc3c(c2)CN(C2CCC(=O)NC2=O)C3=O)c1-c1ccc(OC)cc1 (stereo not shown) [Example 433, 3-(5-(5-(4-methoxyphenyl)-1-(methyl-d3)-1H-pyrazol-4-yl)-1-oxoisoindolin-2-yl) piperidine-2,6-dione] |
| E (E = >25-75% remaining) | < 25 nM | ≥ 25 nM | F (F = >75-100% remaining) | – | – | – | – | Cn1ncc(-c2ccc3c(c2)CN(C2CCC(=O)NC2=O)C3=O)c1-c1ccc(-c2ccc(C#N)cc2)cc1 (stereo not shown) [Example 101] |
| C (C = 0-10% remaining) | < 25 nM | ≥ 25 nM | F (F = >75-100% remaining) | – | – | – | – | Cn1c(C2CCOCC2)nc(-c2ccc3c(c2)CN(C2CCC(=O)NC2=O)C3=O)c1-c1ccccc1 (stereo not shown) [Example 50, 3-(5-(1-methyl-5-phenyl-2-(tetrahydro-2H-pyran-4-yl)-1H-imidazol-4-yl)-1-oxoisoindolin-2-yl)piperidine-2,6-dione] |
| E (E = >25-75% remaining) | < 25 nM | ≥ 25 nM | F (F = >75-100% remaining) | – | – | – | – | Cn1cnc(-c2ccc3c(c2)CN(C2CCC(=O)NC2=O)C3=O)c1-c1ccc2c(c1)OCC2 (stereo not shown) [Example 245] |
| E (E = >25-75% remaining) | < 25 nM | ≥ 25 nM | F (F = >75-100% remaining) | – | – | – | – | Cc1cccc(-c2c(-c3ccc4c(c3)CN(C3CCC(=O)NC3=O)C4=O)cnn2C)c1F (stereo not shown) [Example 106] |
| E (E = >25-75% remaining) | < 25 nM | ≥ 25 nM | F (F = >75-100% remaining) | – | – | – | – | Cc1cc(-c2c(-c3ccc4c(c3)CN(C3CCC(=O)NC3=O)C4=O)cnn2C)ccc1Cl (stereo not shown) [Example 99] |
| – | – | – | – | C (C = 0-10% remaining) | < 25 nM | ≥ 25 nM | F (F = >75-100% remaining) | [2H]C([2H])([2H])n1ncc(-c2ccc3c(c2)CN(C2CCC(=O)NC2=O)C3=O)c1-c1ccc2c(c1)CCO2 (stereo not shown) [Example 432, 3-(5-(5-(2,3-dihydrobenzofuran-5-yl)-1-(methyl-d3)-1H-pyrazol-4-yl)-1-oxoisoindolin-2-yl)piperidine-2,6-dione] |
| E (E = >25-75% remaining) | < 25 nM | ≥ 25 nM | F (F = >75-100% remaining) | – | – | – | – | Cn1ncc(-c2ccc3c(c2)CN(C2CCC(=O)NC2=O)C3=O)c1-c1ccccc1Cl (stereo not shown) [Example 132] |
| – | – | – | – | E (E = >25-75% remaining) | < 25 nM | ≥ 25 nM | F (F = >75-100% remaining) | CC(C)n1ccc(-c2c(-c3ccc4c(c3)CN(C3CCC(=O)NC3=O)C4=O)ncn2C)n1 (stereo not shown) [Example 487] |
| C (C = 0-10% remaining) | < 25 nM | < 25 nM | E (E = >25-75% remaining) | – | – | – | – | Cn1cnc(-c2ccc3c(c2)CN(C2CCC(=O)NC2=O)C3=O)c1-c1ccsc1 (stereo not shown) [Example 226] |
| E (E = >25-75% remaining) | < 25 nM | < 25 nM | E (E = >25-75% remaining) | – | – | – | – | Cc1ccc(-c2c(-c3ccc4c(c3)CN(C3CCC(=O)NC3=O)C4=O)ncn2C)cc1Cl (stereo not shown) [Example 197] |
